Legend:
Hela cells = assay: Hela tumor mass growth in nude mice (tumor weight, inhibition rate); format: in vivo, Balb/c nude mice; conditions: i.v. twice every week, 10 times, 8-oxodGTP 500 μg/kg/time, 5-FU 15 mg/kg/time
Experimental: 5×10^6 Hela cells (200 μl) were inoculated subcutaneously into the armpit of nude mice. After growing to a certain size, the tumor mass was reinoculated subcutaneously into the armpit of 24 nude mice, which were then randomly grouped into the 5-FU positive control group, the blank carrier control group, and the 8-oxodGTP group, and on the second day after the second inoculation, these nude mice were dosed intravenously. The 5-FU group was injected at a dose of 15 mg/kg/time, the 8-oxodGTP group was injected at a dose of 500 μg/kg/time, and the carrier control group was injected at an equal volume of blank carrier reagents. The injections were performed twice every week, for a total of 10 times. After the injections, the tumor mass was taken and weighed, so as to calculate the inhibition rate (inhibition rate=(1-T experimental group/C control group)×100%).

tumor cells = conditions: cited from earlier work
[1] = system: melanomas, SW480 colorectal cancer and MCF7 breast cancer; conditions: cited from earlier work

Structure (SMILES) | Tumor weight (Hela cells) [mg] | Inhibition rate (Hela cells; vs blank carrier group) [%] | Effect of MTH1 inhibition on tumor cells (tumor cells) | Effect in nude mice transplantation experiments [1]
O=c1[nH]cc(F)c(=O)[nH]1 [5-FU, 5-fluorouracil] | 988 ± 436.94 | 18 |  | 
CNc1cc(-c2cccc(Cl)c2Cl)nc(N)n1 [TH287] |  |  | selectively kill tumor cells | 
Nc1nc(NC2CC2)cc(-c2cccc(Cl)c2Cl)n1 [TH588] |  |  | selectively kill tumor cells | therapeutic effects

Reference: US10335427B2, “Tumor prevention and treatment drug and applications thereof” (priority 2016, dated 2019)
